# Experimental data as given in patent US6534546B1 (Chugai Seiyaku Kabushiki Kaisha, priority 1994, dated 2003).
# Read-outs that look alike come from different tables or passages of the source.
# Assays:
# E-cNOS (Type 3) = molecular target: T1, E-cNOS (Type 3) (Bos taurus, UniProt P29473); assay: biochemical; conditions: mean of one to four independent experiments; crude enzyme, 100 nM L-[3H]arginine; read-out: IC50 value, E-cNOS (Type 3)
# T1 construct: the resulting supernatant was used as the crude enzyme sample of E-cNOS; endogenous in cells; host or cells: CPAE (cow pulmonary arterial endothelium cells), 1% Triton X-100 extract, 100,000 x g supernatant
# T1 sequence (P29473 2-1205): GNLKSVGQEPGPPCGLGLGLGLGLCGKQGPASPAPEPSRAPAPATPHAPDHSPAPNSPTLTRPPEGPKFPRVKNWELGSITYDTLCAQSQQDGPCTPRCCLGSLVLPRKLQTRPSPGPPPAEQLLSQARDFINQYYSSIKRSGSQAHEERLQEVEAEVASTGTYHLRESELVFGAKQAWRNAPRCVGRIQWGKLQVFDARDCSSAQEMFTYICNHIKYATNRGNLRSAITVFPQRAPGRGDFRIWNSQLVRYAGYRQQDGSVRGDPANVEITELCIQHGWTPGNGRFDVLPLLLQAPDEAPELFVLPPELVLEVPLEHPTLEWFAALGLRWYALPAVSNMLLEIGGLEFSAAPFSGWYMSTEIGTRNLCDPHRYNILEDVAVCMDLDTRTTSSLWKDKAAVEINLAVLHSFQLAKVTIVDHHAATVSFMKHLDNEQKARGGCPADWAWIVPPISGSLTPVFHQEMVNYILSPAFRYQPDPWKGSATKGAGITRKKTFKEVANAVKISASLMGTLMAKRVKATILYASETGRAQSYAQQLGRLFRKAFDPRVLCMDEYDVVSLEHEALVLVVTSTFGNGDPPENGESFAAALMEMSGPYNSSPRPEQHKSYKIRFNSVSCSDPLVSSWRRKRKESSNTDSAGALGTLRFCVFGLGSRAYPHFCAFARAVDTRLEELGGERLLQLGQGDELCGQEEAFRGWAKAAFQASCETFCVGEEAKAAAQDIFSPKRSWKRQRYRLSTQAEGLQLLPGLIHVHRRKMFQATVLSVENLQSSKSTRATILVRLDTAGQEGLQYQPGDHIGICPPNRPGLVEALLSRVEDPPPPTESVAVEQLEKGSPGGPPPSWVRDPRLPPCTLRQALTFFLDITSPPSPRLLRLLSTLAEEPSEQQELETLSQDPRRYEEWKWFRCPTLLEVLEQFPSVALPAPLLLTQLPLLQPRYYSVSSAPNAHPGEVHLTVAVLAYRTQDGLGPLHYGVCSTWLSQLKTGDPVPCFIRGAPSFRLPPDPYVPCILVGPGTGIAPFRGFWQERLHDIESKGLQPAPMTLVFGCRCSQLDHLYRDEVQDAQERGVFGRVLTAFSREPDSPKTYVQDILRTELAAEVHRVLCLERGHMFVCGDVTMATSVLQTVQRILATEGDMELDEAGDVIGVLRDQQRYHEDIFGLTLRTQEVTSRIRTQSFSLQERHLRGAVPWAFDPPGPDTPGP
# Procedure: The crude enzyme sample of E-cNOS was prepared by the following procedure. A cow pulmonary arterial endothielium cell (CPAE) was cultured in a MEM medium containing 20% FBS. […] A suitable amount of Ca- and Mg-free phosphate buffer (pH 7.4) was added to the precipitating cells and they were centrifuged at 1,000 rpm for 10 min. The same step was repeated to wash the cells which, upon addition of 50 mM Tris-HCl (pH 7.4) containing 1% Triton X-100 and 1 mM DTT, were left to stand in ice for 1 h. Subsequently, the mixture was homogenized for 3 min and kept in ice for 30 min with occasional stirring. Finally, the mixture was centrifuged at 100,000×g for 60 min and the resulting supernatant was used as the crude enzyme sample of E-cNOS.
# The reaction was started by addition of L-[^3H]arginine and following incubation at 37° C. for 10 min, the reaction was terminated by addition of 2 ml of 50 mM Tris-HCl (pH 5.5) containing 1 mM EDTA and placing the mixture on ice. The reaction solution was passed through a cation-exchange resin column (Dowex AG50WX-8, Na^+ form, 3.2 ml) to separate the reaction product L-[^3H]citrulline from the unreacted residual substrate L-[^3H]arginine. The eluate was combined with another eluate resulting from the passage of a given amount of distilled water through the column and put into a minivial for recovery of L-[^3H]citrulline. Thereafter, a scintillation fluid was added and the contained radioactivity was measured with a liquid scintillation counter to determine the amount of L-[^3H]citrulline.
# The activity of N-cNOS or E-cNOS was determined by subtracting the activity as detected in the absence of CaCl2 and calmodulin from the activity as detected in the presence of CaCl2 and calmodulin. […] The protein concentration of each crude enzyme sample was determined with a micro-assay kit of Biorad Co. Each experiment was conducted in a duplicate.
# iNOS (Type 2) = iNOS (Type 2) (Rattus norvegicus, UniProt Q06518); assay: biochemical; format: biochemical; conditions: for IC50: mean of one to four independent experiments, crude enzyme, 100 nM L-[3H]arginine, without CaCl2 and calmodulin, read-out: IC50 value, iNOS (Type 2)
# iNOS (Type 2), sequence (Q06518 whole entry, looked up): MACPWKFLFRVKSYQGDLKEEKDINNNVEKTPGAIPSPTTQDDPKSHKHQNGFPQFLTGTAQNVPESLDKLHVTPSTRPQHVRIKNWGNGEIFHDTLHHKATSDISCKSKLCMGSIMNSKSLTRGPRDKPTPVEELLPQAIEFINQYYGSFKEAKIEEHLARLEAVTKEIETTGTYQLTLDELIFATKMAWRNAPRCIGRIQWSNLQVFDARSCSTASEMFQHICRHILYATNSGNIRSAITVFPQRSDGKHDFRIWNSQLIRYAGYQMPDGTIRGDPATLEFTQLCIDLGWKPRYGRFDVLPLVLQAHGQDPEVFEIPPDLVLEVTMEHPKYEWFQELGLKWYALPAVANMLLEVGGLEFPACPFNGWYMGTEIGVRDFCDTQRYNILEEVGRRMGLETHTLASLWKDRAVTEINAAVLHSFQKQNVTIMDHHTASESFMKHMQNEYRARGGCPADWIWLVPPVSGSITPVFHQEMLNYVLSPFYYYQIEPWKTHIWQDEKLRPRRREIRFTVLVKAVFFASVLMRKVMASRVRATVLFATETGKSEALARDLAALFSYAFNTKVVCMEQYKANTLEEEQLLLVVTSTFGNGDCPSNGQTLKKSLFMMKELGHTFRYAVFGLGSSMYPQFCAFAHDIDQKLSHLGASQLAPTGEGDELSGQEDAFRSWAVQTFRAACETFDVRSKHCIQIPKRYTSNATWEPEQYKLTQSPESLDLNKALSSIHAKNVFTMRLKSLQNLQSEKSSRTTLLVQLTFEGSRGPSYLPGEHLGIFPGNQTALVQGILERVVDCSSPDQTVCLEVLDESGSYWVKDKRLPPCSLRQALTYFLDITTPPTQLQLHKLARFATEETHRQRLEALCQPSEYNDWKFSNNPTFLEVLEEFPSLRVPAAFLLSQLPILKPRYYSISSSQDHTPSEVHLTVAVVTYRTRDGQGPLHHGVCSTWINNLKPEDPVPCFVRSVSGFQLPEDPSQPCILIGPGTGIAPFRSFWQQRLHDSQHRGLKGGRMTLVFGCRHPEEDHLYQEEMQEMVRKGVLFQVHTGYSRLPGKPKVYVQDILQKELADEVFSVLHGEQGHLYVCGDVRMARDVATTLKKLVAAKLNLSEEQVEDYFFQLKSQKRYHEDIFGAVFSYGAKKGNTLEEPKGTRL
# N-cNOS = N-cNOS (Homo sapiens, UniProt P29475); conditions: literature reports; cited from earlier work
# N-cNOS, sequence (P29475 whole entry): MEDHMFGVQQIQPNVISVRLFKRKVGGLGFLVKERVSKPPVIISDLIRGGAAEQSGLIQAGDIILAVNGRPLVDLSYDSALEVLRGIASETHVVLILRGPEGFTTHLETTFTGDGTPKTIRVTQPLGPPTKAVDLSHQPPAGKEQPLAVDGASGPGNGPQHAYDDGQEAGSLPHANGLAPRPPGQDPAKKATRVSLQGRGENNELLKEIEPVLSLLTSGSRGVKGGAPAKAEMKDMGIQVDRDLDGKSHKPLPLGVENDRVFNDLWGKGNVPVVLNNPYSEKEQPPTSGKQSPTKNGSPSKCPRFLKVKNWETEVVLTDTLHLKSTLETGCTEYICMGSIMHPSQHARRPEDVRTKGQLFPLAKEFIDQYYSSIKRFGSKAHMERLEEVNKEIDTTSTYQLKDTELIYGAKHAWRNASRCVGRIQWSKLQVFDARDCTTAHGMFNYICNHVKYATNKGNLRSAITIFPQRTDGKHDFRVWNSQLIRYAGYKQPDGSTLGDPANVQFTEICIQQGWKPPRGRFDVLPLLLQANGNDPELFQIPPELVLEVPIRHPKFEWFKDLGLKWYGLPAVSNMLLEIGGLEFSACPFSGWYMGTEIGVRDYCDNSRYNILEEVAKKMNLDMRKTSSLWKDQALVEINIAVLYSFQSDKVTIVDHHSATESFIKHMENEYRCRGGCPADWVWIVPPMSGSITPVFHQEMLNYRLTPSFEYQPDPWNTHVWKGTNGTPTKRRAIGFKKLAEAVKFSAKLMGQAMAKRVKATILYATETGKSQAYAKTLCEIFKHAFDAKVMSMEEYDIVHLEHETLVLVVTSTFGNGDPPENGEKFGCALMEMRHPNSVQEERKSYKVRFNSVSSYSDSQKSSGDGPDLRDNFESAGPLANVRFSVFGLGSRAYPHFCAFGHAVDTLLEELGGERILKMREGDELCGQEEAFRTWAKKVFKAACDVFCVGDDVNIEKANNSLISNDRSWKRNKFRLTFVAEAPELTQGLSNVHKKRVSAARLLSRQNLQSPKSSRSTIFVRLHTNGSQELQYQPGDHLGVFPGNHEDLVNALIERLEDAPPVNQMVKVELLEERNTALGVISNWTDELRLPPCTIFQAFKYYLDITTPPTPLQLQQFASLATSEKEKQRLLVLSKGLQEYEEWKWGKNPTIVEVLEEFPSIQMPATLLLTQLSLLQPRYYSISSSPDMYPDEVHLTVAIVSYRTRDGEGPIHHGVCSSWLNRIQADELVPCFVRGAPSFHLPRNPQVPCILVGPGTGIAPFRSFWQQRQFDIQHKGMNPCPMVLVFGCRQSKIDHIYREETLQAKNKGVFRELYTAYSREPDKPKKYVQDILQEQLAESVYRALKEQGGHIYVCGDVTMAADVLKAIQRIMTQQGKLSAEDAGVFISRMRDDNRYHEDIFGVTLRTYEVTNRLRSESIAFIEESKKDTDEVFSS
# [1] = system: focal cerebral ischemia in rats; conditions: administered after 3 hours of ischemia; Zhang et al. 1995; cited from earlier work
# [2] = system: rat model of focal cerebral ischemia (temporary MCA occlusion); assay: Brain infarct volume (TTC staining) after 3-h MCA occlusion and 24-h reperfusion; format: in vivo
# [3] = system: rat model of focal cerebral ischemia (permanent MCA occlusion); assay: Brain edema (brain water content, dry-wet method) after 48-h occlusion of the left middle cerebral artery; format: in vivo; conditions: 48 hours after MCA occlusion
# Procedure: An experiment was conducted to evaluate the effectiveness of a compound within the scope of the invention using a rat model of focal cerebral ischemia. Such models were prepared by occluding the left middle cerebral artery (MCA) in accordance with the method already reported by the present inventors (Nagafuji et al., Neurosci. Lett. 147, 159-162, 1992; Nagafuji et al., in Brain Edema IX (Ito et al., eds.) 60, pp. 285-288, 1994, Springer-Verlag; Nagafuji et al., Neuroreport 6, 1541-1545, 1995). […]
# The water content in the brain which was an index of brain edema formation was measured by the dry-wet method (Nagafuji et al., Neurosci. Lett. 147, 159-162, 1992) in the following manner. Forty-eight hours after the MCA occlusion, the rats were decapitated and both the right and left cerebral hemispheres were extracted from each animal within 60 seconds; the wet weight of the brain tissue of each hemisphere was measured with a chemical balance within 90 seconds. Thereafter, the hemispheres were dried in an oven at 105° C. for 3 days and their dry weights were measured. The water content in the brain was determined by the following forumula: (wet weight−dry weight)/(wet weight)×100 (%). […]
# [4] = system: rat model of focal cerebral ischemia; conditions: Nagafuji et al. 1992; cited from earlier work
# [5] = system: gerbil model of forebrain ischemia; conditions: Nagafuji et al. 1993; cited from earlier work
# iNOS = iNOS (Homo sapiens, UniProt P35228); conditions: literature reports; cited from earlier work
# iNOS, sequence (P35228 whole entry): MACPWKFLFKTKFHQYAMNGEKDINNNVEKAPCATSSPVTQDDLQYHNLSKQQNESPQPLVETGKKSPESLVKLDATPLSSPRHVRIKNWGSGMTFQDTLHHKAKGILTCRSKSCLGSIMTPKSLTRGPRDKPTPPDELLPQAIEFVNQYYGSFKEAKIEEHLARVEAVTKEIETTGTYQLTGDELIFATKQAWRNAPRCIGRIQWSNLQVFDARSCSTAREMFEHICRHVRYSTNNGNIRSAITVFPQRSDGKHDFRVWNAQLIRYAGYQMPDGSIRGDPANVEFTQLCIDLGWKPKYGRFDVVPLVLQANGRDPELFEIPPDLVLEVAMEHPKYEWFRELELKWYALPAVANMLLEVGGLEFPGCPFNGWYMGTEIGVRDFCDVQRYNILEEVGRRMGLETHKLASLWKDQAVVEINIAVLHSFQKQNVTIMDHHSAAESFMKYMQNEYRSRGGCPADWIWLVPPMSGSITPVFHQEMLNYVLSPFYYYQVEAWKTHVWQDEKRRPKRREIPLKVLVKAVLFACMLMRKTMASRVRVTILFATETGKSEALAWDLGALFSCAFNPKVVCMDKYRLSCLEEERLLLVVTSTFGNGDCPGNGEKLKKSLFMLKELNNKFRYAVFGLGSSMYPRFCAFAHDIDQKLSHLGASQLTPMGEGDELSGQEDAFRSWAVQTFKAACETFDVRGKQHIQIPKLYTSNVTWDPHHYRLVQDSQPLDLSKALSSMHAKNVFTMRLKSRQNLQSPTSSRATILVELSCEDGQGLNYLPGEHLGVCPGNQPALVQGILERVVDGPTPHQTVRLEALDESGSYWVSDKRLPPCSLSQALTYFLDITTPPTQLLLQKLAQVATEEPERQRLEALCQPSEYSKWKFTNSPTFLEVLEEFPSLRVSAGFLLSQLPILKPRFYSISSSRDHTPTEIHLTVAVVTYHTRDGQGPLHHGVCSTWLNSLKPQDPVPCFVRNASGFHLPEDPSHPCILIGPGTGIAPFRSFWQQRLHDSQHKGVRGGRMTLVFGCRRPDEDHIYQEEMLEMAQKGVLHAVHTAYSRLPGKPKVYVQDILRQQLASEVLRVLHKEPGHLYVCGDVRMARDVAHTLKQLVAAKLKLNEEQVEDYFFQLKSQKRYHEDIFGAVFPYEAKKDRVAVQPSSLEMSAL
# [6] = conclusion from Tables 49, 50 and 51
smiles,measurement,setting,value
"CSC(=N)NCCC[C@H](N)C(=O)O [L-MIN, S-methyl-L-thiocitrulline, reference compound]",IC50,E-cNOS (Type 3),152 nM
same,Ratio of IC50 values E-cNOS/iNOS,iNOS (Type 2),0.6
same,iNOS inhibitory potency compared with the existing NOS inhibitors (L-MIN),iNOS (Type 2); [6],the strongest iNOS inhibitory activity in the existing NOS inhibitors
same,IC50,iNOS (Type 2),248 nM
same,reported selectivity for N-cNOS,N-cNOS,selectivity for N-cNOS
"COC(=O)[C@@H](N)CCCNC(=N)N[N+](=O)[O-] [L-NAME, N^G-nitro-L-arginine methyl ester, reference compound]",infarct volume,[1],decreased significantly
same,IC50,E-cNOS (Type 3),923 nM
"CCSC(=N)Nc1cccc(C(C)(C)N)c1.Cl.Cl [Example 96, N-(1-methyl-1-(3-(S-ethylisothioureido)phenyl)ethyl)amine dihydrochloride]","infarction, dose dependence","[2]; 3-h MCA occlusion and 24-h reperfusion, bolus 0.12-3.6 μg/kg then infusion 0.01-0.3 μg/kg/min",ameliorated in a dose-dependent manner
same,decrease of infarct volume,"[2]; rat, in vivo, iv",about 79.7%
same,"increase in the percentage of the water content (brain edema), dose dependence",[3]; bolus 0.12-3.6 μg/kg then infusion 0.01-0.3 μg/kg/min,reduced in a dose-dependent manner
same,percentage of the water content in the stroke hemisphere to the contralateral hemisphere,"[3]; sustained infusion 0.3 μg/kg/min following intravenous bolus 3.6 μg/kg, p<0.01, control group about 103.8%",about 102.1%
same,IC50,E-cNOS (Type 3),198 nM
same,iNOS inhibitory potency compared with the existing NOS inhibitors (L-MIN),iNOS (Type 2); [6],more potent in inhibiting iNOS than L-MIN
same,"selectivity for iNOS compared to E-cNOS, compared with the existing NOS inhibitors (L-NIO)",iNOS (Type 2); [6],more selective inhibitory effect on iNOS than L-NIO
same,Ratio of IC50 values E-cNOS/iNOS,iNOS (Type 2); index of selectivity,6.9
same,IC50,iNOS (Type 2),28.6 nM
"N=C(NCCC[C@H](N)C(=O)O)N[N+](=O)[O-] [L-NNA, N^G-nitro-L-arginine]",effects against brain edema and infarction,[4],ameliorative effects
same,effects against neuronal cell death,[5],ameliorative effects
"N=C(N)NN [AG, aminoguanidine]",reported selectivity for iNOS,iNOS,selectivity for iNOS
